The results in this text go back to patent publication US20180044316A1, “POTENTIATORS OF BETA-LACTAM ANTIBIOTICS” (UNIVERSITY OF NOTRE DAME DU LAC, priority 2015, published 2018).

A word on the MIC: it is the lowest concentration found to suppress growth. Broadly, the IC50 is the concentration that inhibits the measured activity by half.

In one assay the test system is S. aureus MRSA252. As to the kind of experiment: MIC determination (broth microdilution), oxacillin with or without kinase inhibitor. The format is cell-based, Staphylococcus aureus. The note with it: for MIC: Staphylococcus aureus; for MIC of oxacillin in the presence of compound: compound at 7 μg/mL. As for the experimental part:
A protein-kinase inhibitor library of 80 known compounds was tested in a 96-well format against strain MRSA252 for the screening. We first determined MICs (broth microdilution method) (CLSI, Performance Standards for Antimicrobial Susceptibility Testing; Twenty-Second Informational Supplement. CLSI document M100-S22. Clinical and Laboratory Standards Institute; Wayne, Pa.) for all the inhibitors in the library, in case some of them might have antibacterial properties of their own, which could complicate the analysis.
This rapid initial screening identified compound 1 as meeting the selection criteria of lowering the MIC for oxacillin, which was followed up by the actual evaluation of the MIC of oxacillin against S. aureus MRSA252 in the presence of the inhibitor.
(§1) Minimal-inhibitory concentration (MIC) determination. Determination of MICs was done by the microdilution method cation-adjusted in Mueller-Hinton II Broth (CAMHB II, BBL) in accordance with the protocols of CLSI (Performance Standards for Antimicrobial Susceptibility Testing; Twenty-Second Informational Supplement. CLSI document M100-S22. Clinical and Laboratory Standards Institute Wayne, Pa.). A final bacterial inoculum of 5×10^5 CFU/mL was used, and the results were recorded after incubation for 16-20 h at 37° C.

Assay [1] concerns BlaR1 phosphorylation. As to the kind of experiment: BlaR1 phosphorylation by western blot in CBAP-induced NRS128 whole-cell extracts. The format is cell-based, Staphylococcus aureus NRS128. Particulars: NRS128 induced with 10 μg/mL CBAP, compound at 7 or 17 μg/mL. Here is the method:
Next, we tested the effect of exposure of CBAP-induced NRS128 to this kinase inhibitor. Cultures were induced with 10 μg/mL CBAP in the presence of 0, 7, or 17 μg/mL of compound 1. Whole-cell extracts of these bacteria were analyzed for BlaR1 phosphorylation by western blot using anti-Phos-Ser and anti-Phos-Tyr antibodies. Compound 1 inhibited both the phosphotyrosine and phosphoserine kinase activities by as much as 70-90% (FIG. 4).
Detection of BlaR1 phosphorylation in presence of antibiotic. As we had disclosed in a recent publication on fragmentation of BlaR1 during the course of induction, we detect a cleavage at position S283-F284 of BlaR1 (Llarrull et al., J. Biol. Chem. 2011, 286, 38148-38158). This proteolytic cleavage cuts the BlaR1 protein into two fragments of roughly equal sizes (approx. 30-31 kDa). […]
Extracts were prepared as previously described in buffer containing 50 mM Tris pH 7.5, 150 mM NaCl, 2 mM EDTA, 0.55% SDS, 2.5% Triton X-100, and Halt Protease and Phosphatase Inhibitor Cocktail (Thermo Scientific, Waltham, Mass., U.S.A.) and analyzed by Western blot using antibodies against phosphothreonine, phosphotyrosine, and phosphoserine. A ˜30 kDa protein band was detected by the phosphotyrosine and phosphoserine specific antibodies only in cell extracts of S. aureus cells grown with CBAP (FIG. 2). This band was not detected by the phosphothreonine antibody. […]
Background: Immunoblotting shows a protein as a band on a membrane.

The test system of another assay is MRSA strain NRS123. As to the kind of experiment: MIC determination (broth microdilution), oxacillin with or without kinase inhibitor. It counts as cell-based, Staphylococcus aureus. The note with it: for MIC of oxacillin in the presence of compound: compound at 7 μg/mL.
From the text: (§2) We evaluated the new imidazole analogues for their ability to lower the MIC of oxacillin against MRSA in the same manner as for the kinase inhibitor library. In addition to MRSA252, we expanded our investigation to include strains NRS123 and NRS70, both of which have 95% sequence identities between their BlaR1 proteins and that of NRS128, with the bla operon encoded on plasmids (pMW2 and pN315, respectively).
as §1
For orientation: In broth dilution the organism is exposed to a series of concentrations in liquid medium.

In a further assay the test system is MRSA strain NRS70. The assay is described as above. The format is cell-based, Staphylococcus aureus. The note with it: for MIC of oxacillin in the presence of compound: compound at 7 μg/mL.
From the text: as §2, §1

In assay [2] the test system is BlaR1 phosphorylation. As to the kind of experiment: BlaR1 phosphorylation by western blot in CBAP-induced NRS70 whole-cell extracts. The note with it: for tyrosine phosphorylation of the BlaR1 fragment: NRS70, CBAP-induced, 7 μg/mL inhibitor; for serine phosphorylation of BlaR1 fragment: NRS70, even at 17 μg/mL. The format is cell-based, Staphylococcus aureus NRS70. Here is the method: We then evaluated the ability of compounds 10, 11 or 12 to inhibit tyrosine phosphorylation of BlaR1 in NRS70 extracts. The bacteria were grown under the conditions described earlier for NRS128, induced by CBAP in the absence and presence of 0.7 μg/mL or 7 μg/mL compounds 10, 11 or 12, and analyzed by western blot using antibody against phosphotyrosine (FIG. 5a). […] However, serine phosphorylation was not inhibited by any of these compounds, even at 17 μg/mL (FIG. 6), in contrast to the case of 1, which had inhibited both. This provides evidence for the critical nature of tyrosine phosphorylation for regulation of BlaR1.
To overcome this, we subsequently cleared all S. aureus extracts of Protein A and other immunoglobulin-binding proteins by incubation with IgG Sepharose (GE Healthcare, Little Chalfont, UK) for 1-2 h at room temperature with gentle agitation. After a brief centrifugation, the total protein in the supernatant was quantified by a BCA assay and 20 μg was loaded onto an 11% SDS-PAGE gel. Following electrophoresis, samples were transferred to a nitrocellulose membrane in a 10 mM CAPS (pH 11) buffer containing 10% methanol. Membranes were blocked in 3% BSA for phosphoserine blots or Blotto (3% BSA, 3% milk in TBS) for phosphotyrosine blots. HRP-conjugated primary antibody was applied in either 1% BSA/TBST (phosphoserine, Abcam, Cambridge, UK) or 1.1% milk/TBST (phosphotyrosine, 4G10 Platinum, EMD Millipore, Billerica, Mass., U.S.A.). Phosphoserine blots were developed with Pierce ECL Substrate (Thermo Scientific) and phosphotyrosine blots were developed with SuperSignal West Dura Extended Duration Substrate (Thermo Scientific), then exposed to X-ray film for an appropriate amount of time (30-600 s).

For assay [3], the target named is T1, Stk1 protein kinase (Staphylococcus aureus, UniProt A0ABF7PGK0). The experiment in a line: In vitro phosphorylation assay: Stk1 autophosphorylation. Particulars: IC50, inhibition of Stk1 autophosphorylation, [γ-32P]-ATP 20 μM. It counts as biochemical, S. aureus strain NRS70. The source says:
(§3) Cloning, expression, and purification of S. aureus Stk1 protein kinase. The stk1 gene for Stk1 protein kinase (SA1063 in S. aureus NRS70) is conserved in all known genomic sequences for S. aureus (Beltramini et al., Infect. Immun. 77, 1406-1416 (2009); Débarbouillé et al., J. Bacteriol. 191, 4070-4081 (2009); Didier et al., FEMS Microbiol. Lett. 306, 30-36 (2010)). We PCR-amplified the DNA fragment corresponding to the entire coding sequences of stk1 from S. aureus strain NRS70 chromosomal DNA with primers STK1fw (5′-[…] […]-3′) and STK1rev (5′-[…] […]-3′). The amplified DNA fragments were then digested with NdeI and XhoI restriction enzymes and cloned into pET28a. After verification of the inserts by DNA sequencing on both strands, the resulting plasmid (termed pETstk1) was introduced into E. coli strain BL21(DE3) for protein expression.
(§4) For purification of Stk1, 5 mL of an overnight culture of BL21(DE3) harboring pETstk1 was inoculated into 500 mL fresh LB medium and grown at 37° C. until the OD600 reached 0.8. Isopropyl β-D-1-thiogalactopyranoside (IPTG) was then added to the culture to a final concentration of 0.5 mM and the culture was shaken at 15° C. overnight. The culture was then centrifuged at 5000 rpm at 4° C. for 15 min. The pellet was resuspended in 20 mL of lysis buffer (25 mM HEPES, 500 mM NaCl, 10 mM imidazole, pH 7.4). After sonication, the lysate was centrifuged at 18,000 g at 4° C. for 45 min. The resulting supernatant containing the His-tagged Stk1 was loaded onto a 5-mL Hitrap Chelating column (GE Healthcare), followed by elution with a linear gradient of imidazole (0-500 mM) in lysis buffer. The fractions containing Stk1 were pooled, concentrated and the buffer was exchanged to 25 mM HEPES, pH 7.4. The resulting sample was then subjected to Q anion-exchange chromatography and eluted with a linear gradient of NaCl (0-1 M). Protein purity was ascertained by sodium dodecyl sulfate polyacrylamide gel electrophoresis (SDS-PAGE) (FIG. 7).
(§5) In vitro phosphorylation assay. […] Band intensities were quantified using GelQuant software. […]

For assay [4], the target named is T1, Stk1 protein kinase. As to the kind of experiment: In vitro phosphorylation assay: phosphorylation of myelin basic protein (MBP) by Stk1. It counts as biochemical, S. aureus strain NRS70. The note with it: IC50, inhibition of MBP phosphorylation by Stk1, [γ-32P]-ATP 20 μM.
From the text: as §3, §4, §5

Setting [5] is: Staphylococcus aureus, no inhibitor.

Several values for one entry are separate records, joined by “and”; a condition that tells them apart may be missing. Equal entries are not always repeated. Where two headings read alike, the source gives them in different places. Bounds are passed on as bounds.

T1 sequence (A0ABF7PGK0 entry or part of it): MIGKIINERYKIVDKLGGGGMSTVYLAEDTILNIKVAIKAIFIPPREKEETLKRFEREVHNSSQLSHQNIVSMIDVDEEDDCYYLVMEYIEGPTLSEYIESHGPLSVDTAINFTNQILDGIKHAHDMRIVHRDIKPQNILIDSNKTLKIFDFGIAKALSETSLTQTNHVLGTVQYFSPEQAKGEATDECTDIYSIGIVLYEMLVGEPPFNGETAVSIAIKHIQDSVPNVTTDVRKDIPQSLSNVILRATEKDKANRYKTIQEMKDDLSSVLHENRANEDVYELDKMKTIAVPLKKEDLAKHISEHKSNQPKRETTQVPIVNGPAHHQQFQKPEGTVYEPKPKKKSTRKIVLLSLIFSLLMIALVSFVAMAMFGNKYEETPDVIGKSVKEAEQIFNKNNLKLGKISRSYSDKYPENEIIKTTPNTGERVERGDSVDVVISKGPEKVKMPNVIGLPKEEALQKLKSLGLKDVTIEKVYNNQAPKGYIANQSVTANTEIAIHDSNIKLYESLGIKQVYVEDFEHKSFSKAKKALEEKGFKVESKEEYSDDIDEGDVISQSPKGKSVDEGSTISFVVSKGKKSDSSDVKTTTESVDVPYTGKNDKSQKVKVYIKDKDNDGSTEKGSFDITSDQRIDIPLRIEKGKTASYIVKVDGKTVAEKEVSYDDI

In the case of `Oc1ccc(-c2nc(-c3ccc(F)cc3)c(-c3ccncc3)[nH]2)cc1` [Compound 1, reference compound], the MIC with S. aureus MRSA252 (without oxacillin, read-out: MIC of the kinase inhibitor alone) is at least 64 µg/mL. The “decrease in the MIC of oxacillin” value with S. aureus MRSA252 (inhibitor at 7 μg/mL) is recorded as “four-fold decrease”. Besides, the “inhibition of phosphoserine kinase activity (BlaR1 phosphorylation)” value in the assay on BlaR1 phosphorylation [1] (anti-Phos-Ser western blot) is 70-90%. Further, the “inhibition of phosphotyrosine kinase activity (BlaR1 phosphorylation)” value with BlaR1 phosphorylation [1] (anti-Phos-Tyr western blot) is given as 70-90%.

As to `CC(C)(C)c1ccc(-c2nc(-c3ccc(F)cc3)c(-c3ccncc3)[nH]2)cc1` [Compound 10, 2-(4-tert-Butylphenyl)-4-(4-fluorophenyl)-5-(4-pyridyl)imidazole], the entries for the “MIC of oxacillin in the presence of compound” value (shortened to “MIC of oxacillin … of compound”) with S. aureus MRSA252, with MRSA strain NRS123 and with MRSA strain NRS70 were 2 µg/mL, 8 µg/mL and 4 µg/mL, respectively. Also, the “tyrosine phosphorylation of the BlaR1 fragment” value (“tyrosine phosphorylation” below) with BlaR1 phosphorylation [2] is listed as “almost completely abolished”. For the same molecule, the “serine phosphorylation of BlaR1 fragment” value in the assay with BlaR1 phosphorylation [2] is listed as “not inhibited”. For the same molecule, the IC50 against Stk1 protein kinase [3] was 8.35 µM and 8.8 µM; against Stk1 protein kinase [4] it was 5.65 µM and 6.1 µM.

In the case of `CCc1ccc(-c2nc(-c3ccc(F)cc3)c(-c3ccncc3)[nH]2)cc1` [Compound 11, 2-(4-Ethylphenyl)-4-(4-fluorophenyl)-5-(4-pyridyl)imidazole], the “MIC of oxacillin … of compound” value is 16 µg/mL with S. aureus MRSA252, 4 µg/mL in the assay with MRSA strain NRS123 and 0.5 µg/mL in the assay with MRSA strain NRS70. For the same molecule, the “tyrosine phosphorylation” value in the assay on BlaR1 phosphorylation [2] is given as “almost completely abolished”. The “serine phosphorylation of BlaR1 fragment” value with BlaR1 phosphorylation [2] is “not inhibited”. Further, the IC50 against Stk1 protein kinase [3] was 14.6 µM and 14.9 µM and 14.7 µM; on Stk1 protein kinase [4] it was 11.6 µM and 12.2 µM and 12 µM.

For `CC(C)Cc1ccc(-c2nc(-c3ccc(F)cc3)c(-c3ccncc3)[nH]2)cc1` [Compound 12, 2-(4-iso-Butylphenyl)-4-(4-fluorophenyl)-5-(4-pyridyl)imidazole], the “MIC of oxacillin … of compound” value with S. aureus MRSA252 turned out to be 4 µg/mL; in the assay on MRSA strain NRS123 it was 4 µg/mL; with MRSA strain NRS70 it was 0.5 µg/mL. The “tyrosine phosphorylation” value with BlaR1 phosphorylation [2] was “almost completely abolished”. The “serine phosphorylation of BlaR1 fragment” value in the assay with BlaR1 phosphorylation [2] was “not inhibited”. Moreover, the IC50 at Stk1 protein kinase [3] is 16.2 µM and 17 µM and 18 µM; against Stk1 protein kinase [4], 16.2 µM and 15.3 µM.

Turning to `Cc1onc(-c2ccccc2)c1C(=O)N[C@@H]1C(=O)N2[C@@H]1SC(C)(C)[C@@H]2C(=O)O` [oxacillin, reference compound], the MIC came to 256 µg/mL with S. aureus MRSA252 (no inhibitor, read-out: MIC of oxacillin); 16 µg/mL in the assay on MRSA strain NRS123 (setting [5]); 32 µg/mL in the assay with MRSA strain NRS70 (setting [5]).
